Key:
Format in all cases: cell-based
HEK293 cells [1] = assay: Preliminary screening as DNA vectors, GFP transfection of HEK293 cells; conditions: HEK293 cells; lipid/DOPE liposome with 75 ng plasmid DNA (psin-EGFP-IRES-Puro); number of cells expressing GFP divided by total number of nuclei (Hoechst)
Procedure, shortened: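 Lipid + DOPE liposomes (NaOAc, pH 5.6) complexed w/ 75 ng psin-EGFP-IRES-Puro, 30 min RT; added to 3-5×10^4 HEK293/well, 37° C. Hoechst 0.2 μg/mL at 20-24 h, imaged after further 20-24 h. Efficiency = GFP+ cells / total nuclei.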

HEK293 cells [2] = assay: Preliminary screening as mRNA vectors, EGFP mRNA transfection of HEK293 cells; conditions: HEK293 cells, 96-well plates, EGFP mRNA 50 ng per well; percentage of GFP fluorescent cells relative to total number of cells (Hoechst)
Procedure, shortened: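 Each well of HEK293 cells received 50 ng of EGFP mRNA. Efficiency was expressed as percent GFP-expressing cells over Hoechst-defined total cell number.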

Hela cells [3] = assay: Transfection of Hela cell line, DNA vectors; conditions: 75 ng plasmid DNA, GFP cells / total cells
Experimental: 1. The compound (0.01 mmol) prepared in Example 1 was dissolved in 1 mL of anhydrous ethanol. After ultrasonically dissolved, 10 μL of the resultant amino lipid solution in ethanol was taken and mixed with 5 μL of DOPE solution in ethanol (0.01 m), and then to the obtained mixture was added 35 μL of 0.2M sodium acetate buffer (pH 5.6), and 50 μL of liposome solution was prepared by vortex at a constant rotating speed for 30 s. 4 μL was taken from the 50 μL liposome solution and added to 46 μL of 0.02M sodium acetate buffer (pH 5.6), and the final liposome solution was formed by vortex at a constant rotating speed for 30 s. 5 μL was taken from the final liposome solution and mixed with 75 ng plasmid DNA (psin-EGFP-IRES-Puro, Clontech) dissolved in 5 μL of 0.02 M sodium acetate buffer, and was allowed to stay at room temperature for 30 min to form a lipid/DNA transfection complex.
2. 10 μL of the lipid/DNA transfection complex was incubated at room temperature for 30 min, followed by addition of 90 μL of fresh resuspended cells (3-5×10^4 cells) and mixing with a pipette. 100 μL of cells+lipid/DNA complex was transferred to separate wells of a 96-well culture plate immediately, and placed in an incubator containing 5% CO2 at 37° C.
3. Hoechst33258 (Invitrogen) was added at a final concentration of 0.2 μg/mL to the cells 20 to 24 hours after initial cell transfection, and cultured in darkness at 37° C. for 15 min. Afterwards, the cells were washed once with a PBS solution, and then added with medium for culture for 20 to 24 h.
4. The cells were placed in a high-throughput confocal microscope (Molecular Devices ImageXpress), and four visual fields of the image of the cells were captured for each well, and images at three laser wavelengths were captured for each sample: bright field images of cells (FIG. 2(a) and FIG. 2(b)), Hoechst-staining images showing total nuclei (FIG. 2(c) and FIG. 2(d)) and GFP images showing success in transfection with the plasmid DNA and the expression of GFP (FIG. 2(e) and FIG. 2(f)). MetaXpress software was used to separately count the cells in the Hoechst-staining images and GFP images, and then the number of cells expressing GFP was divided by the total number of nuclei to give the absolute cell transfection efficiency. The absolute transfection efficiency was calculated as follows: […]
(§1) Cell line: Hela cells (ATCC 35241)
(§2) Medium: DMEM supplemented with 10% fetal bovine serum (Invitrogen)
(§3) Screening: cell transfection on 96-well plates
(§4) Detection (readout): percentage of the number of GFP fluorescent cells relative to the total number of cells (the total number of cells was determined using nucleus dye Hoechst). Lipofectamine2000 (Invitrogen) was used as the positive control, according to the manufacturer's instructions.
Method: the experimental method was basically the same with Example 4.

Hela cells [4] = assay: Transfection of Hela cell line, mRNA vectors; conditions: 50 ng EGFP mRNA per well
Experimental: as §1, §2, §3
as §4, with “Hoechst). A commercially available liposome transfection reagent” for “Hoechst).”, “control group,” for “control,”
Method: the experimental method was basically the same with Example 4, and the mass of EGFP mRNA for transfection was 50 ng per well.

| Structure (SMILES) | Absolute DNA transfection efficiency in HEK293 cells (HEK293 cells [1]) | Absolute mRNA transfection efficiency in HEK293 cells (HEK293 cells [2]) | Absolute DNA transfection efficiency in Hela cells (Hela cells [3]) | Absolute mRNA transfection efficiency in Hela cells (Hela cells [4]) |
| --- | --- | --- | --- | --- |
| CCCCCCCCCCCCCCSc1nc(NCCN2CCOCC2)nc(SCCCCCCCCC)n1 [Compound S9S14D2] | 14.3% | 0.3% | 7.3% | 7.3% |
| CCCCCCCCCCCCSc1nc(NCCN2CCCCC2)nc(SCCCCCCCCC)n1 [Compound S9S12D4] | 0.0% | 0.6% | 0.0% | 0.0% |
| CCCCCCCCCCCCCCCCSc1nc(NCCN(CC)CC)nc(SCCCCCCCCC)n1 [Compound S9S16D7] | 8.4% | 1.8% | 4.2% | 4.2% |
| CCCCCCCCCCCCCCCCSc1nc(NCCN2CCCCC2)nc(SCCCCCCCCC)n1 [Compound S9S16D4] | 12.2% | 1.2% | 6.2% | 6.2% |
| CCCCCCCCCCCSc1nc(NCCCCCCCC)nc(NCCN(CC)CC)n1 [Compound S11N8D7] |  |  | 5.7% | 5.7% |
| CCCCCCCCCCCNc1nc(NCCN2CCCCC2)nc(SCCCCCCCC)n1 [Compound S8N11D4] |  |  | 7.6% | 7.6% |
| CCCCCCCCCCCSc1nc(NCCCCCCCCC)nc(NCCN2CCCCC2)n1 [Compound S11N9D4] |  |  | 0.5% | 0.5% |
| CCCCCCCCCCCCSc1nc(NCCN2CCOCC2)nc(SCCCCCCC)n1 [Compound S7S12D2] |  |  | 9.2% | 9.2% |
| CCCCCCCCCCCSc1nc(NCCN(CC)CC)nc(SCCCCCCC)n1 [Compound S7S11D7] |  |  | 5.2% | 5.2% |
| CCCCCCCCCCCCCNc1nc(NCCN(CC)CC)nc(SCCCCCCCC)n1 [Compound S8N13D7] |  |  | 4.5% | 4.5% |
| CCCCCCCCCCCCSc1nc(NCCN(C)C)nc(SCCCCCCCC)n1 [Compound S8S12D1] |  |  | 5.4% | 5.4% |
| CCCCCCCCCNc1nc(NCCN(CC)CC)nc(SCCCCCCCCC)n1 [Compound S9N9D7] |  |  | 24.8% | 24.8% |
| CCCCCCCCCCCCCNc1nc(NCCN2CCCCC2)nc(SCCCCCCCC)n1 [Compound S8N13D4] |  |  | 1.8% | 1.8% |
| CCCCCCCCCCCCNc1nc(NCCN2CCOCC2)nc(SCCCCCCCCC)n1 [Compound S9N12D2] |  |  | 6.5% | 6.5% |
| CCCCCCCCCCCCSc1nc(NCCN2CCCCC2)nc(SCCCCCCC)n1 [Compound S7S12D4] |  |  | 4.7% | 4.7% |
| CCCCCCCCCCCCCNc1nc(NCCN2CCOCC2)nc(SCCCCCCCC)n1 [Compound S8N13D2] |  |  | 9.83% | 9.8% |
| CCCCCCCCCCCNc1nc(NCCN2CCOCC2)nc(SCCCCCCCCC)n1 [Compound S9N11D2] |  |  | 8.2% | 8.2% |
| CCCCCCCCCCCCNc1nc(NCCN2CCCCC2)nc(SCCCCCCCCC)n1 [Compound S9N12D4] |  |  | 4.1% | 4.1% |

| Structure (SMILES) | Absolute DNA transfection efficiency in HEK293 cells (HEK293 cells [1]) | Absolute mRNA transfection efficiency in HEK293 cells (HEK293 cells [2]) | Absolute DNA transfection efficiency in Hela cells (Hela cells [3]) | Absolute mRNA transfection efficiency in Hela cells (Hela cells [4]) |
| --- | --- | --- | --- | --- |
| CCCCCCCCCCCSc1nc(NCCCCCCCC)nc(NCCN2CCOCC2)n1 [Compound S11N8D2] |  |  | 9.3% | 9.3% |
| CCCCCCCCCCCSc1nc(NCCCCCCC)nc(NCCN2CCCCC2)n1 [Compound S11N7D4] |  |  | 2.3% | 2.3% |
| CCCCCCCCCCCSc1nc(NCCCCCCC)nc(NCCN2CCOCC2)n1 [Compound S11N7D2] |  |  | 5.8% | 5.8% |
| CCCCCCCCCNc1nc(NCCN2CCCCC2)nc(SCCCCCCCCC)n1 [Compound S9N9D4] |  |  | 8.9% | 8.9% |
| CCCCCCCCCCCCSc1nc(NCCN(CC)CC)nc(SCCCCCCCC)n1 [Compound S8S12D7] |  |  | 4.6% | 4.6% |
| CCCCCCCCCCCSc1nc(NCCCCCCC)nc(NCCN(CC)CC)n1 [Compound S11N7D7] |  |  | 5.8% | 5.8% |
| CCCCCCCCCCCSc1nc(NCCN2CCOCC2)nc(SCCCCCCC)n1 [Compound S7S11D2] |  |  | 13.6% | 13.6% |
| CCCCCCCCCCCSc1nc(NCCN2CCOCC2)nc(SCCCCCCCC)n1 [Compound S8S11D2] |  |  | 8.9% | 8.6% |
| CCCCCCCCCCCSc1nc(NCCN(C)C)nc(SCCCCCCCC)n1 [Compound S8S11D1] |  |  | 4.59% | 4.9% |
| CCCCCCCCCNc1nc(NCCN(C)C)nc(SCCCCCCCCC)n1 [Compound S9N9D1] |  |  | 17.7% | 17.7% |
| CCCCCCCCCCCNc1nc(NCCN(C)C)nc(SCCCCCCCCC)n1 [Compound S9N11D1] |  |  | 17.7% | 17.7% |
| CCCCCCCCCCCCSc1nc(NCCN(C)C)nc(SCCCCCCC)n1 [Compound S7S12D1] |  |  | 4.2% | 4.1% |
| CCCCCCCCCCCCCNc1nc(NCCN(C)C)nc(SCCCCCCCC)n1 [Compound S8N13D1] |  |  | 9.7% | 9.7% |
| CCCCCCCCCCCSc1nc(NCCCCCCC)nc(NCCN(C)C)n1 [Compound S11N7D1] |  |  | 13.9% | 13.9% |
| CCCCCCCCCCCNc1nc(NCCN(CC)CC)nc(SCCCCCCCCC)n1 [Compound S9N11D7] |  |  | 7.8% | 7.8% |
| CCCCCCCCCCCNc1nc(NCCN2CCCCC2)nc(SCCCCCCCCC)n1 [Compound S9N11D4] |  |  | 4.4% | 4.4% |
| CCCCCCCCCCCSc1nc(NCCN(C)C)nc(SCCCCCCC)n1 [Compound S7S11D1] |  |  | 5.9% | 5.9% |
| CCCCCCCCCCCNc1nc(NCCN2CCOCC2)nc(SCCCCCCCC)n1 [Compound S8N11D2] |  |  | 12.7% | 12.7% |
